From patent US8993585B2, “Cyclic amine substituted pyrimidinediamines as PKC inhibitors” (Rigel Pharmaceuticals, Inc., priority 2007, dated 2015)

Experiments:
PKC mu = biological target: T1, PKC mu (Homo sapiens, UniProt Q15139); assay: PKC assay, fluorescence polarization (Example 2), PKC mu; assay type: biochemical; conditions: 5 μM ATP
T1 sequence (Q15139 1-912): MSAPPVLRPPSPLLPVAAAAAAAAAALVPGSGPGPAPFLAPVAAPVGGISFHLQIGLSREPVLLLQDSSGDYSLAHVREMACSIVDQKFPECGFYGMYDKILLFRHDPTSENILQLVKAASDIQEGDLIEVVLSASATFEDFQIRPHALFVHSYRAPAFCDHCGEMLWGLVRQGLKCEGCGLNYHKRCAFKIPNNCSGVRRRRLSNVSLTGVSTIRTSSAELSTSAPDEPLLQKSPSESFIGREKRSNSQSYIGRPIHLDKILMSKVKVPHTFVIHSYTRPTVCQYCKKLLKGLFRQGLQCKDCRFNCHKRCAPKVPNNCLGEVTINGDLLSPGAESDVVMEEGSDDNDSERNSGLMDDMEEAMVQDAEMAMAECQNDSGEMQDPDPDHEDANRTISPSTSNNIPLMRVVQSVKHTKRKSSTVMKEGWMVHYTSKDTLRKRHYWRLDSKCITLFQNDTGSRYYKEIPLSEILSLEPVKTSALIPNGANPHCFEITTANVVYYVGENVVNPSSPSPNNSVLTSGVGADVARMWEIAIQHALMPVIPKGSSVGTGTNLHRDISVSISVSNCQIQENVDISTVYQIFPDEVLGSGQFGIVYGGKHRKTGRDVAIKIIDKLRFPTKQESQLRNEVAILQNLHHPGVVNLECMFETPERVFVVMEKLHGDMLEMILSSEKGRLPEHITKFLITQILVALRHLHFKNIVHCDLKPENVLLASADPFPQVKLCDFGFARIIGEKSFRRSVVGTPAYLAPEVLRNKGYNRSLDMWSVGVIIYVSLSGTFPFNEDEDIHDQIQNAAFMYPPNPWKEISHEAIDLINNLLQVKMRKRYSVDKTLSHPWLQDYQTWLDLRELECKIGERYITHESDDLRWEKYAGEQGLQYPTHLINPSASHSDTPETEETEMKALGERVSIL
Procedure: (§1) The inhibition of PKC activity was measured by monitoring the production of phosphorylated peptide by fluorescence polarization at different concentrations of the inhibitor. Reactions were carried out in 96-well plate format with a total volume of 20 μL containing 20 mM HEPES, pH 7.4, 5 mM MgCl2, 0.2 mM CaCl2, 1 mM DTT, 0.02% Brij-35, 0.1 mg/mL phosphatidylserine, 0.02 mg/mL dioleoyl-sn-glycerol and 5 μM each of ATP and the peptide substrate. Compounds were first diluted serially in DMSO and then transferred to a solution containing the above concentrations of HEPES, MgCl2, CaCl2, DTT, and Brij-35 to yield 5× compound solutions in 2% DMSO, which was then added to the reaction solution. Reactions were initiated by the addition of PKC at a typical concentration as described in Table VI, and then allowed to incubate at room temperature for 20 min. At the end of this time, a combination of quench (EDTA) and detection (peptide tracer and antibody) reagents was added using the protocol of Invitrogen P2748. After a 30 min. period of incubation, the amount of phosphorylated peptide generated was measured by fluorescence polarization (Ex=485 nm, Em=535 nm) using a Tecan Polarian instrument.

PKC theta = biological target: T2, PKC theta (Homo sapiens, UniProt Q04759); assay: PKC assay, fluorescence polarization (Example 2), PKC theta; assay type: biochemical; conditions: 5 μM ATP
T2 construct: purchased Upstate Biotechnologies, Temecula, CA 14-444
T2 sequence (Q04759 whole entry): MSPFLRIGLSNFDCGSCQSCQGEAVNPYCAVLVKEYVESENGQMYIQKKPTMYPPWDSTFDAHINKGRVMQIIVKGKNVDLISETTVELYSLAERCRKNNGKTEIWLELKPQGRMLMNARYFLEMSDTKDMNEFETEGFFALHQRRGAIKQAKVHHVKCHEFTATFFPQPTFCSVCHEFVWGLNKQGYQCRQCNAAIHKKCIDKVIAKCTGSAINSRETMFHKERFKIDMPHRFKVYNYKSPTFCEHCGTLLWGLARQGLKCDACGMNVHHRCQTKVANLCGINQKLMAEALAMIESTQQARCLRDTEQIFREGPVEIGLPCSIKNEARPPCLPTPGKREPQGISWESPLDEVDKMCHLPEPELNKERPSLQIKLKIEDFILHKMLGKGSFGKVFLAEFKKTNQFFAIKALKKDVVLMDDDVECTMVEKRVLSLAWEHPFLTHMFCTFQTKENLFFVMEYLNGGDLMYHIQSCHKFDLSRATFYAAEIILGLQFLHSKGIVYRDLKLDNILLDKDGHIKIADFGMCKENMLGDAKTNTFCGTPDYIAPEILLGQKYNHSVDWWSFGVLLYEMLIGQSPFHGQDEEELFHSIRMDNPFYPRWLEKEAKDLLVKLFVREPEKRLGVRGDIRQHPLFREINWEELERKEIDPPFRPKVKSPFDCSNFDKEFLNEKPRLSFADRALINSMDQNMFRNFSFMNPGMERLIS
Summary of the method: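 Phosphorylated peptide product detected by fluorescence polarization, with EDTA quench plus peptide tracer and antibody. Reaction in 20 mM HEPES pH 7.4, 5 mM MgCl2, 0.2 mM CaCl2, 1 mM DTT, 0.02% Brij-35, phosphatidylserine and dioleoyl-sn-glycerol, with 5 μM ATP and 5 μM peptide. Started with enzyme, 20 min at room temperature.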

PKC epsilon = biological target: T3, PKC epsilon (Homo sapiens, UniProt Q02156); assay: PKC assay, fluorescence polarization (Example 2), PKC epsilon; assay type: biochemical; conditions: 5 μM ATP
T3 construct: purchased Upstate Biotechnologies, Temecula, CA 14-518
T3 sequence (Q02156 1-737): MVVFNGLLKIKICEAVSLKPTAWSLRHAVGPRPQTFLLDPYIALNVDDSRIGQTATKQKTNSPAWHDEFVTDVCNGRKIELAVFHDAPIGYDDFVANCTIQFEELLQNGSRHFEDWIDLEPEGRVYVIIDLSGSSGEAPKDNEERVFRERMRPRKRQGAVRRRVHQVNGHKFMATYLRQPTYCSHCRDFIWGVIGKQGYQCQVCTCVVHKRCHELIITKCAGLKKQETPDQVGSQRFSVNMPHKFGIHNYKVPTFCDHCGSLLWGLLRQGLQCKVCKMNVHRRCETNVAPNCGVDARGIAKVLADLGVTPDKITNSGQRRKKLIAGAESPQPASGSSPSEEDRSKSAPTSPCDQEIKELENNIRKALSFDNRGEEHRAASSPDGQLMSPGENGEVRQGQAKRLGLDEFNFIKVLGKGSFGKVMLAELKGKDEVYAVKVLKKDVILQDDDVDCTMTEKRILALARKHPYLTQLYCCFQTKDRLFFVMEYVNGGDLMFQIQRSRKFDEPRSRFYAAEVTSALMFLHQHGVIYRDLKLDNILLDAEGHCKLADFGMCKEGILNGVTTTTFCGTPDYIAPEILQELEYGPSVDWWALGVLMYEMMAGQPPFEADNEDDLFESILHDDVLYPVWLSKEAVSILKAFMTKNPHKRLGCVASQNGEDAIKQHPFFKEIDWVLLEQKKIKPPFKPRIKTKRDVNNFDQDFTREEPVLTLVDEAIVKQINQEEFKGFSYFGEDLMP
Procedure: as §1, with “P2748.” for “P2748. After a 30 min. period of incubation, the amount of phosphorylated peptide generated was measured by fluorescence polarization (Ex=485 nm, Em=535 nm) using a Tecan Polarian instrument.”

Human primary T cells = assay: IL-2 ELISA, Human Primary T Cell, Anti-CD3+CD28+ (Example 3); assay type: cell-based; conditions: Homo sapiens, T-cell, 24 h, anti-CD3+CD28 stimulation
Summary of the method: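 IL-2 was read by ELISA after stimulation on wells pre-coated with 1 ug/ml αCD3 and 5 μg/ml αCD28. Before this, 100,000 human primary T cells per well spent 1 h at 37 °C with test compound in Yssel's medium. The counter-screen replaced antibody stimulation with PMA (0.5 ng/ml final) and ionomycin (0.1 uM final).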

Row | SMILES | IC50 (PKC mu) [nM] | IC50 (PKC theta) [nM] | IC50 (PKC epsilon) [nM] | IC50 (Human primary T cells) [nM]
1 | CN1CCN(c2ccc(Nc3ncc(C(F)(F)F)c(NC4CC(C)(C)N(C)C(C)(C)C4)n3)cc2C(F)(F)F)CC1 [Compound I-38] | 33 | 16 | 506 | 196
2 | CCOc1ccc(Nc2ncc(C#N)c(NC3CC(C)(C)N(C)C(C)(C)C3)n2)cc1-n1nnnc1CC [Compound I-460] | – | 0.4 | 60 | 30
3 | CN1CCN(c2ccc(Nc3ncc(C(F)(F)F)c(NC4CC(C)(C)N(C)C(C)(C)C4)n3)cc2C#N)CC1 [Compound I-178] | – | 0.81 | 160 | 243
4 | CN1C(=O)C(F)(F)Oc2cc(Nc3ncc(F)c(NC4CC(C)(C)N(C)C(C)(C)C4)n3)ccc21 [II-8] | – | 2.43 | 57.9 | 90
5 | CCOc1ccc(Nc2ncc(C#N)c(NC3CC(C)(C)NC(C)(C)C3)n2)cc1-n1nnnc1CC [Compound I-469] | – | 1.5 | 129 | 120
6 | CN1C(C)(C)CC(Nc2nc(Nc3ccc(OC(F)F)c(OC(F)F)c3)ncc2F)CC1(C)C [Compound I-344] | – | 6.54 | 40.7 | 205
7 | CN1C(C)(C)CC(Nc2nc(Nc3ccc(-c4ccncc4)c(C(F)(F)F)c3)ncc2F)CC1(C)C [Compound I-96] | – | 4.56 | 81.7 | 177
8 | CN1C(C)(C)CC(Nc2nc(Nc3ccc(-n4cccc4)c(C#N)c3)ncc2Cl)CC1(C)C [Compound I-167] | – | 3.87 | 197 | 227
9 | Cc1ccc(Nc2ncc(Cl)c(NC3CC(C)(C)N(C)C(C)(C)C3)n2)cc1C#N [Compound I-168] | – | 2.72 | 32.7 | 120
10 | COc1ccc(Nc2ncc(F)c(NC3CC(C)(C)N(C)C(C)(C)C3)n2)cc1-n1c(C)ccc1C [Compound I-348] | – | 3.66 | 100 | 172
11 | COc1ccc(Nc2ncc(Cl)c(NC3CC(C)(C)N(C)C(C)(C)C3)n2)cc1OC(F)F [Compound I-341] | – | 0.55 | 53.2 | 45.6
